Where two headings read alike, the source gives them in different places.
What was measured:
P. falciparum 3D7 = test: Hypoxanthine incorporation growth inhibition assay, asexual blood stage, wild-type 3D7; format: cell-based, Plasmodium falciparum; conditions: for EC50: read-out: EC50 WT
Method: Hypoxanthine incorporation assays[36] were performed on P. falciparum asexual blood stage parasites (wild-type 3D7 or T618Q gatekeeper mutant) to determine EC50 values for test compounds. Mixed staged parasites (primarily rings) were added to 96 well plates containing compounds at concentrations of 50 μM–0.3 nM. […] Assays were carried out in triplicate at least twice.

[1] = test system: P. falciparum T618Q gatekeeper mutant line; test: Hypoxanthine incorporation growth inhibition assay, asexual blood stage, T618Q gatekeeper mutant line; format: cell-based, Plasmodium falciparum; conditions: for sensitivity of gatekeeper mutant line compared with wild type (control drugs): tested in parallel on both parasite lines; for EC50 / EC90: T618Q clonal line asexual blood stage growth, 72 h, +/- s.e.m.
Method: We determined that a 72 h P. falciparum (clone 3D7A; obtained from Lisa Ranford Cartwright, University of Edinburgh) growth inhibition assay was necessary for full inhibition to manifest itself and that this is due, most likely to a schizont-specific action rather than a delayed death phenotype as observed for some antibiotic macrocycles. Hypoxanthine incorporation assays[36] were performed on P. falciparum asexual blood stage parasites (wild-type 3D7 or T618Q gatekeeper mutant) to determine EC50 values for test compounds. Mixed staged parasites (primarily rings) were added to 96 well plates containing compounds at concentrations of 50 μM–0.3 nM. [^3H]-Hypoxanthine was added after 48 h to a final concentration of 0.2 μCi. The radioactivity of the labeled hypoxanthine incorporated into the parasite nucleic acids over 24 h was determined relative to untreated controls using a Wallac 1450 Microbeta scintillation counter (Perkin-Elmer). Assays were carried out in triplicate at least twice.

[2] = Plasma levels in satellite groups of mice, P. berghei experiment; format: in vivo, mouse; conditions: BALB/c, mouse, in vivo; mice, oral 25 mg/kg, P. berghei experiment; read-out: plasma half-life (converted)
Excerpt: Supplementary Figure 4. Plasma concentrations over time in rodent malaria models. […] Error bars show the standard deviation. (1 picture or pasted object on this page, not shown here)

P. chabaudi (AS) = test: Synchronous P. chabaudi AS model in BALB/c mice; format: in vivo, Plasmodium chabaudi; conditions: single daily oral dose 50 mg/kg just prior to schizogony, 4 days
Method: Similar experiments were performed using P. chabaudi AS (from David Walliker, University of Edinburgh) with the following modifications. To allow dosing to be carried out more conveniently during the day, reversal of the light/dark exposure of mice for 2 weeks prior to the experiment was used to switch schizogony from midnight to noon each day. Mice were dosed at different time points in an attempt to have maximal coverage at the point of schizogony. All animal work protocols carried out at LSHTM were approved and licensed by the United Kingdom Home Office as governed by law under the Animals (Scientific Procedures) Act of 1986, in strict accordance with the Code of Practice Part 1 for the housing and care of animals (21 March 2005), available at http://www.homeoffice.gov.uk/science-research/animal-research/

[3] = test system: P. falciparum (NF54) gametocytes; test: Standard membrane feeding assay (SMFA), gametocytes fed to Anopheles stephensi; format: cell-based, Plasmodium falciparum; conditions: Plasmodium falciparum, NF54; gametocytes pre-incubated 24 h, oocysts counted day 7 post-feed; read-out: IC50 for reduction of the intensity of infection (oocysts)
Method: Mature P. falciparum (NF54) gametocytes (14 day culture, 0.3–0.5% gametocytes, 2% haematocrit) were obtained from an automated tipper system and incubated with compound for 24 h as previously described. Anopheles stephensi (Sind-Kasur Nijmegen strain[39] were reared at 30 °C and 70–80% humidity, while exposed to a 12/12 h day/night cycle. On the day of feeding, the gametocyte culture was adjusted to 50% hematocrit with human red blood cells and human serum and fed to 3–5 day old mosquitoes using a glass membrane mini-feeder system containing 0.35 ml of the P. falciparum culture/compound mix[40]. Unfed and partially fed mosquitoes were removed after feeding and blood fed females were maintained at 26 °C and 70–80% humidity. Up to 20 surviving mosquitoes were collected on day 7 post-infection and oocysts were visualized using a 1% merchurochrome solution and quantified by microscopy. IC50 values were determined by logistic regression using Maximum Likelihood Estimation to find best fit[41].

[4] = test system: P. falciparum wild-type (3D7) stage V gametocytes; test: Gametogenesis (rounding up) assay, wild-type 3D7 stage V gametocytes; format: cell-based, Plasmodium falciparum; conditions: 30 µM xanthurenic acid; 2 µM ML1, 1 µM ML10
Method: Plasmodium falciparum clone 3D7A (obtained from Dr Lisa Ranford-Cartwright, University of Edinburgh) gametocytes were initiated and cultured using an adapted version of the traditional Trager and Jenson method modified by Fivelman and colleagues. Stage V gametocytes were purified on a 60% Percoll gradient. Purified parasite samples were diluted in warm complete media (RPMI-1640 (Sigma), 0.5% Albumax (Invitrogen), 0.03% L-glutamine (Sigma), 0.2% Glucose (Sigma), 1× hypoxanthine (Sigma)), to a volume that would allow a final volume of […] per sample and a haematocrit of <10%. […] Control tubes containing DMSO only were kept at 37 °C. All other samples were incubated at room temperature for 30 min immediately after addition of test compounds. Samples were then washed once in warm RPMI followed by removal of the supernatant to leave a final haematocrit of roughly 50%. Samples were smeared on glass slides and fixed in 100% methanol (VWR) then stained for 15 min in 10% Giemsa R66 (VWR) and observed by light microscopy. The number of gametocytes at stage V and rounded up per 900 erythrocytes were counted three consecutive times to produce an average count. Numbers of parasites rounded up were compared to the no drug control.

[5] = test system: P. falciparum gatekeeper mutant (T618Q) stage V gametocytes; test: Gametogenesis (rounding up) assay, T618Q stage V gametocytes; format: cell-based, Plasmodium falciparum; conditions: 30 µM xanthurenic acid; 2 µM ML1, 1 µM ML10
[6] = Cytotoxicity assay using HepG2 cells; conditions: human
Method: (§1) Compound mlm hlm mLogD PAMPA HepG2 name (%rem) (%rem) (nm/s) (IC50 µM)
(§2) Supplementary Table 2. Compound Properties. MLM, HLM, mLogD and PAMPA . mlm (%rem): % of compound remaining after 30 minutes’ incubation with mouse liver microsomes; hlm (%rem): % of compound remaining after 40 minutes’ incubation with human liver microsomes; mLogD: measured LogD at pH 7.4; PAMPA: parallel artificial membrane permeability assay; HepG2: Cytotoxicity assay using HepG2 cells; n.t.: not tested.

[7] = Stability in human liver microsomes
Method: as §1, §2

physchem = conditions: pH 7.4
Method: as §1, §2

PfPKG = PfPKG (Plasmodium falciparum, UniProt Q8I719); test: Microfluidic mobility shift kinase assay, recombinant PfPKG wild type
PfPKG, sequence (Q8I719 whole entry): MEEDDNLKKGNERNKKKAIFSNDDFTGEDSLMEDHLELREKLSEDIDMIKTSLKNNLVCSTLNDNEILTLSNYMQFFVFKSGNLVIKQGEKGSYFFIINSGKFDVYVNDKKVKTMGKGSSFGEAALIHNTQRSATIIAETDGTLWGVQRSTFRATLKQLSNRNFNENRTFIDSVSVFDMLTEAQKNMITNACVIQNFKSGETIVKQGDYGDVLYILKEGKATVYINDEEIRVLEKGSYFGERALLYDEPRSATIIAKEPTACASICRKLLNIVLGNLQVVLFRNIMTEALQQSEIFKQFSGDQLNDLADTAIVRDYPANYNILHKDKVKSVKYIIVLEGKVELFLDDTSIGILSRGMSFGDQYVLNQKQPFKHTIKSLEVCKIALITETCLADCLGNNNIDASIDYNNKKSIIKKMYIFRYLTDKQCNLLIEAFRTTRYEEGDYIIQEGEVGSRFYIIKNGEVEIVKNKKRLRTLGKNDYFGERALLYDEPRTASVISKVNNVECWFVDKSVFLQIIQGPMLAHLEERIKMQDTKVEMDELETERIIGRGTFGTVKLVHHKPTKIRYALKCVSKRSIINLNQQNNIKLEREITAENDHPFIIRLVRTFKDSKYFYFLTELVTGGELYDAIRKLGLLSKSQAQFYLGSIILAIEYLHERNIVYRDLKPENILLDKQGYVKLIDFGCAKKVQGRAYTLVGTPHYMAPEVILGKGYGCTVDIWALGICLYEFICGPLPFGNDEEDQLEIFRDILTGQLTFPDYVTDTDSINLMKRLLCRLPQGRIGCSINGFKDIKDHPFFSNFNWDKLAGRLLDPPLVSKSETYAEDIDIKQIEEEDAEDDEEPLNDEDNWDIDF
Method: (§3) Full length PfPKG (NCBI accession code XP_001348520) with native codon usage was cloned into the pTrcHisC plasmid (Life Technologies) that includes an N-terminal His-tag as described previously[8]. […] Recombinant proteins were generated and purified using a protocol based on that described previously[8]. […] 500 ml cultures in LB Rich Broth (containing 50 μg/ml carbenicillin and 34 μg/ml chloramphenicol) were grown in a shaking incubator at 37 °C until reaching an optical density (O.D.) of 0.6–0.7. The temperature was reduced to 16 °C before induction of expression with 1 mM IPTG. Incubation at 16 °C was continued overnight.
(§4) The cultures were harvested by centrifugation at 4000×g at 4 °C for 30 min, the supernatant removed and the pellet stored at −80 °C for in excess of 1 h. The PKGs were purified via the histidine tag on HiTrap TALON (cobalt) columns (GE Healthcare) connected to an AKTA-FPLC as per the manufacturer's instruction. Fractions were analyzed by SDS-PAGE and the main peak concentrated on 10 kDa MWCO concentrators (Amicon). Purified proteins were stored in 50% glycerol at −80 °C in single use aliquots. The final buffer composition of the purified product was: 50 mM Tris/HCl pH 7.5, 0.1 mM EGTA, 150 mM NaCl, 0.1% β-mercaptoethanol, 50% glycerol, 0.03% Brij-35, 1 mM benzamidine and 0.2 mM PMSF.
(§5) IC50 values were determined for test compounds using a microfluidic mobility shift assay. Briefly, compounds were prepared over a 10-well ½ log dilution series in dimethyl sulfoxide (DMSO) in duplicate in 50 μl volumes using 384-well polypropylene U-bottomed plates (Thermo Scientific, UK). The plates contained positive/no inhibitor (DMSO only) and negative (no enzyme) controls in columns 1, 2, and 23, 24. […] Samples were pre-incubated at room temperature for 30 min and reactions were initiated by addition of 25 μl ATP mix (10 mM MgCl2 and ATP, at KM of the enzyme under test [20 µM PfPKG and 90 µM PfPKG T618Q], in water). Positive controls were complete reaction mixtures with 10% DMSO and negative controls were reaction mixtures with 10% DMSO but lacking enzyme. Reactions were allowed to proceed for 30 mins at room temperature, corresponding to conversion of approximately 10% of the substrate in the DMSO controls. Reactions were terminated by addition of 50 µl stop solution (25 mM EDTA in water). Samples were analyzed by electrophoretic separation of substrate and product peaks and fluorescence detection using a Caliper Lab Chip EZ reader. (Perkin Elmer, Waltham MA) with 0.2 s sip time, downstream voltage 500 V, upstream voltage 1950 V and pressure 0.5 to 1.5 psi. Substrate and product peak heights were measured and the ratio of the product peak height divided by the sum of the product and substrate peaks were determined using EZ reader software (version 3.0.265.0) to obtain percentage conversion (P) values. […] Liquid handling stages were conducted on a Biomek robotic liquid handler (Beckman Coulter).

PfPKG T618Q = PfPKG T618Q (Plasmodium falciparum, UniProt Q8I719, T618Q); test: Microfluidic mobility shift kinase assay, recombinant PfPKG T618Q gatekeeper mutant
PfPKG T618Q, sequence (Q8I719 whole entry T618Q): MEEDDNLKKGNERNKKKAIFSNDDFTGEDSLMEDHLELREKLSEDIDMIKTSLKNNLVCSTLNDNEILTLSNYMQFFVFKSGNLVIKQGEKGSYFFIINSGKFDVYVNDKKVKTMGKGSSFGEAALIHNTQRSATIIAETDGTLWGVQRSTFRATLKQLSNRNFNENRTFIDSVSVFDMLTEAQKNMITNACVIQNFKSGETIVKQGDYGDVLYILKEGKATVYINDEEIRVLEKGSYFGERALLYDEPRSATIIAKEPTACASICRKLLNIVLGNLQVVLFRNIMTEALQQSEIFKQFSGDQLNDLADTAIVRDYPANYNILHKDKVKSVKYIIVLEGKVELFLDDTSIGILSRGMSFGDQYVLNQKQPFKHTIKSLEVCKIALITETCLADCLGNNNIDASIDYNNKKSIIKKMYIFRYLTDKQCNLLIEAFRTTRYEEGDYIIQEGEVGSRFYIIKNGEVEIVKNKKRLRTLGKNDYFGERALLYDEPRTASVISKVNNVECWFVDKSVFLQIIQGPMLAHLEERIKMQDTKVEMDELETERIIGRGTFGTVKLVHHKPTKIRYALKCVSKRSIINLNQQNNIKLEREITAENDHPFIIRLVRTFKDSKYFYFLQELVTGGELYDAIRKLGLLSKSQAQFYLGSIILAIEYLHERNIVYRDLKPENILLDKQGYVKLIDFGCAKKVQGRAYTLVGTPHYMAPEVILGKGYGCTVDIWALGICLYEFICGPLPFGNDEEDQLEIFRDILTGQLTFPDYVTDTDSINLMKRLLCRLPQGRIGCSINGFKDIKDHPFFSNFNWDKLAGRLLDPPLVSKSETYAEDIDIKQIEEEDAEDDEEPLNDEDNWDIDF
Method: as §3, §4, §5

HepG2 cells = test: Cytotoxicity assay using HepG2 cells
Method: as §1, §2

[8] = Stability in mouse liver microsomes
Method: as §1, §2

[9] = Parallel artificial membrane permeability assay (PAMPA); format: in vitro ADME
Excerpt: Compound mlm hlm mLogD PAMPA HepG2
name (%rem) (%rem) (nm/s) (IC50 µM)
Supplementary Table 2. Compound Properties. MLM, HLM, mLogD and PAMPA . mlm

[10] = Plasmodium falciparum, 3D7, 72 h
[11] = % of compound remaining after 40 minutes' incubation
[12] = 3D7 asexual blood stage growth, 72 h, +/- s.e.m.
[13] = read-out: IC50 WT, recombinant full length 6His-tagged PfPKG, ATP at KM (20 µM), +/- s.e.m.
[14] = read-out: IC50 T618Q, recombinant PfPKG T618Q, ATP at KM (90 µM), +/- s.e.m.

| Compound | mLogD (physchem) | EC90 (P. falciparum 3D7; [12]) | EC50 (P. falciparum 3D7; [12]) | EC50 [1] | EC90 [1] | mlm (%rem) ([8]; mouse, microsomes, 0.5 h) | hlm (%rem) ([7]; human, microsomes, 40 min) | PAMPA [9] | IC50 (PfPKG; [13]) | IC50 (PfPKG T618Q; [14]) | also measured |
| --- | --- | --- | --- | --- | --- | --- | --- | --- | --- | --- | --- |
| CCN(CC)CCCC(C)Nc1ccnc2cc(Cl)ccc12 (stereo not shown) [Chloroquine, reference compound] | – | – | – | – | – | – | – | – | – | – | EC50 (P. falciparum 3D7; [10]): 0.0162 ± 0.0012 µM; sensitivity of gatekeeper mutant line compared with wild type (control drugs) [1]: equivalent levels of inhibition of both parasite lines |
| CN(C)Cc1ccn2c(-c3ccnc(N)n3)c(-c3ccc(F)cc3)nc2c1 [ML1, 4-[7-[(dimethylamino)methyl]-2-(4-fluorophenyl)imidazo[1,2-a]pyridine-3-yl]pyrimidin-2-amine, reference compound] | 2.4 | – | – | – | – | – | – | – | – | – | EC50 (P. falciparum 3D7; [10]): 0.395 µM; half-life [2]: 1.1 h; reduction in blood stage parasitaemia (P. chabaudi (AS)): 67.9%; IC50 [3]: 0.507 µM; rounding up of wild-type gametocytes [4]: blocked rounding up; rounding up of T618Q gametocytes [5]: insensitive; IC50 [6]: > 20 µM; hlm (%rem) [7, 11]: 70%; IC50 (PfPKG): 0.0031 µM; IC50 (PfPKG T618Q): 8.44 µM |
| CN(C)Cc1ccn2c(-c3ccnc(N)n3)c(-c3cccc(S(C)(=O)=O)c3)nc2c1 [ML5] | 1.5 | 0.445 µM | 0.329 µM | 12.7 µM | 61.5 µM | 96% | 96% | 1.77 ×10⁻⁶ cm/s | 0.00088 µM | > 100 µM | IC50 (HepG2 cells): > 20 µM |
| Fc1ccc(-c2nc3ccccn3c2-c2ccnc(Nc3ccc(N4CCNCC4)cc3)n2)cc1 [ML2] | 3.1 | 0.628 µM | 0.197 µM | 0.14 µM | 0.956 µM | 100% | 100% | 0 ×10⁻⁶ cm/s | 0.00171 µM | 1.71 µM | – |
| CN(C)Cc1ccn2c(-c3ccnc(Nc4ccc(N5CCNCC5)cc4)n3)c(-c3ccc(F)cc3)nc2c1 [ML3] | 2.2 | 0.236 µM | 0.0634 µM | 0.195 µM | 0.279 µM | – | – | 6.62 ×10⁻⁶ cm/s | 0.00079 µM | 0.842 µM | IC50 (HepG2 cells; read-out: HepG2 (IC50 M), cytotoxicity): 1.9 µM; mlm (%rem) ([8]; % of compound remaining after 30 minutes' incubation): 89%; hlm (%rem) [7, 11]: 62% |
| CN(C)Cc1ccn2c(-c3ccnc(N)n3)c(-c3ccc(F)c(NS(C)(=O)=O)c3)nc2c1 [ML8] | 0.8 | 0.182 µM | 0.148 µM | 5.57 µM | 31 µM | 97% | 91% | 0.2 ×10⁻⁶ cm/s | 0.00079 µM | 73.7 µM | IC50 (HepG2 cells): > 20 µM |
| C[C@@H]1CC[C@H]2[C@@H](C)C(=O)O[C@@H]3O[C@@]4(C)CC[C@@H]1[C@]32OO4 [Artemisinin, reference compound] | – | – | – | – | – | – | – | – | – | – | EC50 (P. falciparum 3D7; Plasmodium falciparum, 3D7, 72 h, 3D7 asexual blood stage growth, 72 h, +/- s.e.m.): 0.0252 ± 0.0015 µM; sensitivity of gatekeeper mutant line compared with wild type (control drugs) [1]: equivalent levels of inhibition of both parasite lines |
